# Tests used:
# [1] = test system: human patients suffering from relapsing multiple sclerosis (RMS); test: Phase II RMS study: HRQoL SF-36 Physical Component Summary score; assay type: in vivo; conditions: for Difference in LS means of CFB in PCS score vs placebo: week 24, MMRM
# Method: Analysis of Primary Endpoint
# (§1) Primary and secondary efficacy endpoints were analysed based on the modified intention-to-treat (mITT) analysis set, consisting of all randomized patients with at least one available baseline and one post-baseline MRI assessment. […] For each endpoint, rate ratio (RR; null-hypothesis RR=1.0) adjusted for baseline disease activity was reported together with associated 95% CI and p-value. The T2 lesion endpoint was analysed similarly. Dose-response relationships between evobrutinib treatment dose and primary and key secondary endpoints were assessed for linear and monotonic trend. The analysis of CFB in cube root of volume of T2 lesions at Week 24 was based on a mixed-effect model for repeated measures, with fixed effects for treatment, week of visit, and treatment-by-week interaction, random effect for subject, and adjustment for baseline cube root of lesion volume. CFB in SF-36 score at Week 24 was analysed similarly. Descriptive statistics were used to further describe the study outcomes.
# [2] = Clinical trial of relative bioavailability of tablet vs powder-in-capsule incl. food effect in healthy volunteers; assay type: in vivo, human; conditions: oral administration in proximity in time to food (fed vs fasted)
# [3] = test system: B- and T-cell-mediated EAE mouse models; conditions: cited from earlier work
# B cells = conditions: in vitro and ex vivo; cited from earlier work
# [4] = test system: BCR- and FcR-mediated signalling; conditions: variety of human cellular assays; cited from earlier work
# [5] = test system: human patients suffering from relapsing multiple sclerosis (RMS); test: Phase II RMS study: qualified relapse assessment (ARR, relapse-free status); assay type: in vivo; conditions: for Qualified relapse rate, adjusted / Qualified relapses, number of relapses: 24 weeks; for Proportion relapse-free / Unadjusted ARR: Week 24
# Method: The assessing Investigator and central MRI reader were treatment blinded.
# Subjects were assessed for MS relapse at visits beginning at Week 4. Relapse was also assessed at any Unscheduled Visit for Neurological Worsening and Relapse Assessment. For subjects in the OLE Period, MS relapse was assessed at all visits. A qualifying relapse was defined as new, worsening or recurrent neurological symptoms attributed to MS that last for at least 24 hours without fever or infection, or adverse reaction to prescribed medication, preceded by a stable or improving neurological status of at least 30 days. The relapse must have been accompanied by new clinical signs (i.e., changes in the neurological examination or an increase in EDSS score).
# The protocol specified that all cases of potential relapse were to be objectively confirmed by the Investigator regardless of whether they were identified during a scheduled or unscheduled visit. Any assessments needed to confirm the relapse were to be performed, and details of the relapse were to be documented within the relevant section(s) of the eCRF.
# Additional Secondary Endpoints
# Analysis of secondary endpoints was based on the mITT analysis set. […] Descriptive statistics for ARR were calculated for each treatment group as the total number of qualified relapses divided by the number of subject-years of observation.
# as §1
# [6] = 75 mg QD, listed as evobrutinib
structure (smiles),measurement,setting,value
"C=CC(=O)N1CCC(CNc2ncnc(N)c2-c2ccc(Oc3ccccc3)cc2)CC1 [Evobrutinib, 1-(4-(((6-amino-5-(4-phenoxyphenyl)pyrimidin-4-yl)amino)methyl)piperidin-1-yl)prop-2-en-1-one]","Change in SF-36 PCS score from baseline to week 24, Mean ± SD",[1]; 25 mg QD,0.8 ± 5.93
same,"Change in SF-36 PCS score from baseline to week 24, Median",[1]; 25 mg QD,0.3
same,Difference in LS means of CFB in PCS score vs placebo,[1]; 25 mg QD,1.73
same,"Change in SF-36 PCS score from baseline to week 24, Mean ± SD",[1]; 75 mg BID,1.1 ± 5.22
same,"Change in SF-36 PCS score from baseline to week 24, Median",[1]; 75 mg BID,1.3
same,Difference in LS means of CFB in PCS score vs placebo,[1]; 75 mg BID,1.93
same,"Change in SF-36 PCS score from baseline to week 24, Mean ± SD",[1]; 75 mg QD,1.5 ± 7.09
same,"Change in SF-36 PCS score from baseline to week 24, Median",[1]; 75 mg QD,0.6
same,Difference in LS means of CFB in PCS score vs placebo,[1]; 75 mg QD,1.95
same,"Change in SF-36 PCS score from baseline to week 24, Mean ± SD",[1]; [6],1.5±7.09
same,Effect of food on bioavailability,[2],significant increase in the bioavailability
same,"CNS inflammation, demyelination and disease severity (clinical scoring)",[3],potential to reduce CNS inflammation and demyelination and ameliorate disease severity
same,B-cell activation and maturation,B cells,inhibits B-cell activation and maturation from naïve to antigen-activated B cells
same,BCR- and FcR-mediated signalling,[4],potently inhibit
same,"Qualified relapse rate, adjusted",[5]; 25 mg QD,0.47
same,"Qualified relapses, number of relapses",[5]; 25 mg QD,12 n
same,Proportion relapse-free,[5]; 25 mg QD,76.0%
same,Unadjusted ARR,[5]; 25 mg QD,0.52
same,Proportion relapse-free,"[5]; 25 mg QD, listed as evobrutinib",76%
same,"Qualified relapse rate, adjusted",[5]; 75 mg BID,0.07
same,"Qualified relapses, number of relapses",[5]; 75 mg BID,2 n
same,Proportion relapse-free,[5]; 75 mg BID,86.8%
same,Unadjusted ARR,[5]; 75 mg BID,0.08
same,Proportion relapse-free,"[5]; 75 mg BID, listed as evobrutinib",87%
same,"Qualified relapse rate, adjusted",[5]; 75 mg QD,0.10
same,"Qualified relapses, number of relapses",[5]; 75 mg QD,3 n
same,Proportion relapse-free,[5]; 75 mg QD,88.2%
same,Unadjusted ARR,[5]; 75 mg QD,0.13
same,Proportion relapse-free,[5]; [6],88%
